This note sets out measurements from US20170296611A1, “Pharmaceutical Compositions Comprising Extracts of Sarcopoterium Spinosum, Components Thereof, and Uses Thereof” (Diabest Botanical Drugs Ltd., priority 2009, published 2017).

Holding throughout (assay type): cell-based
The test system of experiment [1] is 3T3-L1 adipocytes. The experiment in a line: Free fatty acid release (lipolysis) assay in 3T3-L1 adipocytes. How it is done:
3T3-L1 pre-adipocytes were cultured and differentiated as described in references 8 as well as 16, 19, 20 and 21. Briefly, cells were grown to confluence in Dulbecco's Modified Eagle's Medium (DMEM) containing 10% fetal calf serum (FCS), 2 mM glutamine and 1% ampicillin. Two days after full confluence, the cells were induced to differentiate by 3 days incubation in DMEM containing 10% FCS, 0.5 mM isobutylmethylxanthine (IBMX), 1 μM dexamethasone and 100 nM insulin. This was followed by 2 days of incubation in DMEM containing 10% FCS and 100 nM insulin. The cells were grown for an additional 5-9 days in DMEM containing 10% FCS. […] Differentiated adipocytes were preincubated for 12 hours in DMEM containing 2% fatty acid-free bovine serum albumin, in the absence of FCS. Lipolysis was stimulated by treating cells with 10 μM isoproterenol for 1 hour, in the absence or presence of insulin (100 nM) or a composition (S. spinosum extract diluted to 0.001-1% V/V). Free fatty acids (FFA) released into the culture media were measured immediately using a NEFA-C kit, according to the kit instructions. Lipolysis was induced using the adrenergic agonist isoproterenol in order to analyze the extract's effect on lipolysis, and the effect of compositions comprising S. spinosum extract on isoproterenol-induced lipolysis measured, with insulin as a positive control. Differentiated adipocytes (3T3-L1) were treated with insulin (100 nM) or a composition comprising 1% (V/V) S. spinosum extract with or without the addition of isoproterenol (10 μM) for 60 min. Free fatty acid (FFA) concentration was measured […].

The test system of experiment [2] is AML12 hepatocyte cell line. The experiment in a line: [3H]2-deoxy-D-glucose uptake in hepatocytes. Particulars: insulin 100 nM. How it is done: (§1) L6 myoblasts were grown in MEM-α containing 25 mM glucose, 10% FCS, 2 mM glutamine and 1% ampicillin. Experiments were performed on differentiated myotubes. In order to induce differentiation, myoblasts were incubated in MEM-α containing 25 mM glucose and 2% FCS for 4 days, followed by an additional 24 h incubation in a MEM-α starvation medium containing 5 mM glucose and 2% FCS. AML-12, a nontransformed hepatocyte cell line were maintained in DMEM containing 25 mM glucose, 10% FCS, 2 mM glutamine and 1% ampicillin. Differentiated adipocytes, L6 myoblasts and AML12 cells were each preincubated for 6 hours in low glucose (4.5 mM), serum-free DMEM containing 1% BSA, and then treated with either 100 nM insulin or compositions comprising different concentrations of S. spinosum extract (0.001-1% V/V). Glucose uptake was measured in triplicate samples in six-well plates using [^3H]2-deoxy-D-glucose (1 mCi/ml; American Radiolabeled Chemicals, St. Louis, Mo., USA). […] Samples were counted in the ^3H window of a Tricarb scintillation counter. […] The effect of S. spinosum compositions on glucose uptake was measured in the AML12 hepatocyte cell line, L6 skeletal myoblasts and in differentiated 3T3-L1 adipocytes, and compared to the effect of insulin. […] The uptake of [^3H]2-deoxy-D-glucose into cells was determined as described in the Materials and Methods section.

Experiment [3] relates to GSK3β ser-9 phosphorylation. Description: GSK3β phosphorylation in L6 myotubes (Western blot / ELISA). Particulars: insulin 100 nM, 20 min. How it is done: L6 myoblasts were grown in MEM-α containing 25 mM glucose, 10% FCS, 2 mM glutamine and 1% ampicillin. Experiments were performed on differentiated myotubes. In order to induce differentiation, myoblasts were incubated in MEM-α containing 25 mM glucose and 2% FCS for 4 days, followed by an additional 24 h incubation in a MEM-α starvation medium containing 5 mM glucose and 2% FCS. AML-12, a nontransformed hepatocyte cell line were maintained in DMEM containing 25 mM glucose, 10% FCS, 2 mM glutamine and 1% ampicillin. […] Protein lysates were prepared using cell extraction buffer supplemented with protease and phosphatase inhibitors. The samples were homogenized and centrifuged at 14,000 rpm for 20 min. The supernatant was collected and protein concentration was measured using the Bradford method. 20 μg protein per lane was separated by SDS-polyacrylamide gel electrophoresis. Proteins were electrophoretically transferred onto nitrocellulose membranes. The membranes were blocked in 10% dry milk, incubated with the appropriate antibodies and immunodetected using the enhanced chemiluminescence method. Differentiated L6 myotubes were treated with 100 nM insulin or composition (S. spinosum extract diluted to 0.1% V/V) for 20 min. Protein lysates were prepared using cell extraction buffer. […] GSK-3β phosphorylation was measured using the ELISA detection kit. […]
Background: A western blot detects proteins with antibodies after separation by electrophoresis.

The test system of experiment [4] is differentiated 3T3-L1 adipocytes. Description: [3H]2-deoxy-D-glucose uptake in 3T3-L1 adipocytes. Particulars: insulin 100 nM. How it is done: 3T3-L1 pre-adipocytes were cultured and differentiated as described in references 8 as well as 16, 19, 20 and 21. Briefly, cells were grown to confluence in Dulbecco's Modified Eagle's Medium (DMEM) containing 10% fetal calf serum (FCS), 2 mM glutamine and 1% ampicillin. Two days after full confluence, the cells were induced to differentiate by 3 days incubation in DMEM containing 10% FCS, 0.5 mM isobutylmethylxanthine (IBMX), 1 μM dexamethasone and 100 nM insulin. This was followed by 2 days of incubation in DMEM containing 10% FCS and 100 nM insulin. The cells were grown for an additional 5-9 days in DMEM containing 10% FCS. […] Glucose uptake was measured in triplicate samples in six-well plates using [^3H]2-deoxy-D-glucose (1 mCi/ml; American Radiolabeled Chemicals, St. Louis, Mo., USA). […] Samples were counted in the ^3H window of a Tricarb scintillation counter. […] The effect of S. spinosum compositions on glucose uptake was measured in the AML12 hepatocyte cell line, L6 skeletal myoblasts and in differentiated 3T3-L1 adipocytes, and compared to the effect of insulin. […] The uptake of [^3H]2-deoxy-D-glucose into cells was determined as described in the Materials and Methods section.

Experiment [5] relates to L6 myoblasts. The experiment in a line: [3H]2-deoxy-D-glucose uptake in L6 myoblasts. Particulars: insulin 100 nM. How it is done:
as §1

Turning to `CC(C)NCC(O)c1ccc(O)c(O)c1` (stereo not shown) [isoproterenol, Isoproterenol, reference compound], the “free fatty acid release (lipolysis)” value in experiment [1] (isoproterenol 10 μM for one hour alone) turned out to be 4.23±3.01 mM FFA/mg protein.

Take insulin: the “increase in glucose uptake” value was 160±12% in experiment [2], 167±13% in experiment [4] and 146±11.26% in experiment [5]. Also, the “increase in GSK3β ser-9 phosphorylation compared to the control” value in experiment [3] is on record as 4 fold. Further, the “isoproterenol-induced free fatty acid release” value in experiment [1] (isoproterenol 10 μM, 60 min, insulin 100 nM) is given as 0.47±0.16 mM FFA/mg protein. Further, the “free fatty acid release” value in experiment [1] (unstimulated adipocytes (no isoproterenol)) is on record as “not affected”.
